Assay results published in BindingDB's records for doi:10.1016/j.bmcl.2007.11.060 (Amgen, 2008).

Assay: Antagonist activity at CXCR3 assessed as ITAC-mediated migration of human PBMC in presence of 100% human plasma

Compound | IC50
CCS(=O)(=O)CCN(C(=O)Cc1ccc(F)c(C(F)(F)F)c1)[C@H](C)c1nc2ccccc2n1-c1ccc(C#N)cc1 [(R)-N-(1-(1-(4-cyanophenyl)-1H-benzo[d]imidazol-2-yl)ethyl)-N-(2-(ethylsulfonyl)ethyl)-2-(4-fluoro-3-(trifluoromethyl)phenyl)acetamide] | 521 nM
CCS(=O)(=O)CCN(C(=O)Cc1ccc(F)c(C(F)(F)F)c1)[C@H](C)c1nc2ncccc2cc1-c1ccc(C#N)cc1 [(R)-N-(1-(3-(4-cyanophenyl)-1,8-naphthyridin-2-yl)ethyl)-N-(2-(ethylsulfonyl)ethyl)-2-(4-fluoro-3-(trifluoromethyl)phenyl)acetamide] | 48 nM
CCS(=O)(=O)CCN(C(=O)Cc1ccc(F)c(C(F)(F)F)c1)[C@H](C)c1nc2c(c(=O)n1-c1ccc(C#N)cc1)CCCN2C [(R)-N-(1-(3-(4-cyanophenyl)-8-methyl-4-oxo-3,4,5,6,7,8-hexahydropyrido[2,3-d]pyrimidin-2-yl)ethyl)-N-(2-(ethylsulfonyl)ethyl)-2-(4-fluoro-3-(trifluoromethyl)phenyl)acetamide] | 88 nM
CCS(=O)(=O)CCN(C(=O)Cc1ccc(F)c(C(F)(F)F)c1)[C@H](C)c1nc2ccccn2c1-c1ccc(C#N)cc1 [(R)-N-(1-(3-(4-cyanophenyl)H-imidazo[1,2-a]pyridin-2-yl)ethyl)-N-(2-(ethylsulfonyl)ethyl)-2-(4-fluoro-3-(trifluoromethyl)phenyl)acetamide] | 72 nM
CCS(=O)(=O)CCN(C(=O)Cc1ccc(F)c(C(F)(F)F)c1)[C@H](C)c1nc2ccccc2cc1-c1ccc(C#N)cc1 [(R)-N-(1-(3-(4-cyanophenyl)quinolin-2-yl)ethyl)-N-(2-(ethylsulfonyl)ethyl)-2-(4-fluoro-3-(trifluoromethyl)phenyl)acetamide] | 72 nM
